Patent US12215354B2, “Differentiation of human embryonic stem cells into single hormonal insulin positive cells” (Janssen Biotech, Inc., priority 2011, dated 2025)

Tested on: human embryonic stem cell line H1
Test: Real-time PCR gene expression, timing of BMP inhibition at stage 3 (Example 3)
Type: cell-based
Description: Cells of the human embryonic stem cell line H1 at various passages (passage 40 to passage 52) were seeded as single cells at a density of 100,000 cells/cm^2 on MATRIGEL™ (1:30 dilution) coated dishes in mTesr™1 media supplemented with 10 μM of Y27632. Forty eight hours post seeding, cultures were differentiated into cells of the pancreatic endocrine lineage as follows: • a. Stage 1 (Definitive Endoderm (DE)−4 days): Prior to start of DE, the cells were washed and incubated with incomplete PBS (no Mg or Ca) for 30 seconds followed by incubation in S1 media. Human embryonic stem cells cultured as single cells on MATRIGEL™-coated dishes were treated for one day with MCDB-131 medium supplemented with 0.1% fatty acid-free BSA, 0.0012 g/ml sodium bicarbonate, 1× GLUTAMAX™, 2.5 mM D-Glucose, 100 ng/ml GDF8, 1.5 μM MCX compound (GSK3B inhibitor). Cells were then treated for […] (days 2-4) with MCDB-131 medium supplemented with 0.1% fatty acid-free BSA, 0.0012 g/ml sodium bicarbonate, 1× GLUTAMAX™, 2.5 mM glucose, and 100 ng/ml GDF8. • b. Stage 2 (Primitive gut tube−3 days): Stage 1 cells were treated for three days with MCDB-131 medium supplemented with 0.1% fatty acid-free BSA, 0.0012 g/ml sodium bicarbonate, 1× GLUTAMAX™, 2.5 mM D-Glucose, and 50 ng/ml FGF7. • c. Stage 3 (Foregut−3 days): Stage 2 cells were treated with MCDB-131 medium supplemented with a 1:200 dilution of ITS-X, 2.5 mM Glucose, 1× GLUTAMAX™, 0.0015 g/ml sodium bicarbonate, 2% fatty acid-free BSA, 0.25 μM SANT-1, 20 ng/ml of Activin-A, 2 μM RA, 50 ng/ml FGF7, 100 nM LDN-193189 (on day 1 only or for the duration of stage 3), and 200 nM TPB. In some cultures, LDN-193189 was removed from stage 3. • d. Stage 4 (Pancreatic foregut precursor-3 days): Stage 3 cells were treated with MCDB-131 medium supplemented with a 1:200 dilution of ITS-X, 2.5 mM Glucose, 1× GLUTAMAX™, 0.0015 g/ml sodium bicarbonate, 2% fatty acid-free BSA, 0.25 μM SANT-1, 100 nM TPB, 200 nM LDN-193189, 2 μM ALk5 inhibitor, and 100 nM CYP26A inhibitor for three days. • e. […]

[1] = at stage 4, 100 nM LDN-193189 on first day of stage 3, removed at days 2-3

Compound: c1ccc2c(-c3cnn4cc(-c5ccc(N6CCNCC6)cc5)cnc34)ccnc2c1 [LDN-193189]
- expression of SOX2 (at S3-S4, LDN-193189 retained for the duration of stage 3): very high expression
- CDX2 and SOX2 expression [1]: decreasing
- expression of NGN3 and NeuroD [1]: significantly boosted
